# Values of other authors in PMC3073735 (Chemistry & biology, 2011).
# Where no end group is shown, it is not given here.
# Tested on: ferroportin
# Conditions: ref Nemeth, et al., 2006
substance,measurement,value
"M21Y: synthetic hepcidin mutant from the literature (DTHFPICIFCCGCCHRSKCGYCCKT-OH; disulfide (positions not given here); ends not checked; UniProt P81172 60-84, looked up, variant M21Y)",activity compared with native hepcidin,comparable activity to native hepcidin
